# Legend:
# [1] = system: UMPS edited human T cells; assay: Growth of heterogeneous UMPS edited T cell population with/without exogenous uracil source (cell counts); assay type: cell-based; details: UMP or Uridine added at 250 ug/ml; no selection step; compared with mock edited and CCR5 targeted controls
# Procedure: Cells were cryopreserved in Bambanker medium. After thawing cells were cultured at 37° C., 5% CO2 in X-Vivo 15 (Lonza) supplemented with or without 5% human serum (Sigma-Aldrich) and 100 IU/ml human recombinant IL-2 (Peprotech) and 10 ng/ml human recombinant IL-7 (BD Biosciences). UMP or Uridine were added at 250 ug/ml. 5-FOA was added at 100 ug/ml to 1 mg/ml. During culture, medium was refreshed every 2 days. T cells were activated using immobilized Anti-CD3 (clone OKT3, Tonbo Biosciences) and soluble anti-CD28 (clone CD28.2, Tonbo Biosciences) for 3 days before electroporation. For the experiments in FIGS. 1, 3 and 4, 1.4 million activated T cells were electroporated. For the experiments in FIG. 2, 30,000 activated T cells were electroporated per condition. These cells were resuspended in electroporation solution, mixed with the pre-complexed RNP and electroporated using a 4D-Nucleofector (Lonza) using program EO-115. The RNP consisted of Cas9 protein (Alt-R® S. pyogenes, IDT) at 300 ug/ml and sgRNA using a sgRNA:Cas9 molar ratio of 2.5. Genomic DNA was harvested using QuickExtract (Epicentre). Cells were counted on an automated cell counter using Trypan blue staining or on a Cytoflex (Beckman Coulter) flow cytometer using CountBright beads (ThermoFisher) as a reference. Data was analyzed using Excel (Microsoft) and FlowJo (Tree Star). […]
# human T cells = assay: 5-FOA resistance assay of UMPS targeted vs mock targeted T cells (cell counts after 4 days); assay type: cell-based; details: for survival / viability of cells in 5-FOA: mock treated and UMPS targeted T cells grown in 5-FOA for 4 days, UMP or Uridine 250 ug/ml, 5% human serum
# Procedure: (§1) Cells were cryopreserved in Bambanker medium. After thawing cells were cultured at 37° C., 5% CO2 in X-Vivo 15 (Lonza) supplemented with or without 5% human serum (Sigma-Aldrich) and 100 IU/ml human recombinant IL-2 (Peprotech) and 10 ng/ml human recombinant IL-7 (BD Biosciences). UMP or Uridine were added at 250 ug/ml. 5-FOA was added at 100 ug/ml to 1 mg/ml. During culture, medium was refreshed every 2 days.
# (§2) Genomic DNA was harvested using QuickExtract (Epicentre). Cells were counted on an automated cell counter using Trypan blue staining or on a Cytoflex (Beckman Coulter) flow cytometer using CountBright beads (ThermoFisher) as a reference. Data was analyzed using Excel (Microsoft) and FlowJo (Tree Star).
# 5-FOA selects for uracil auxotrophic cells in other organisms (e.g. Boeke et al. 1984, Mol. Gen. Genet. 197(2):345-6). To investigate the potential utility of 5-FOA for the selection of uracil auxotrophs in human cells, the UMPS gene was targeted in human T cells by Cas9-gRNA complex electroporation followed by recovery (as in Example 2) followed by an assay of resistance to 5-FOA treatment (FIG. 3A). Cells were grown in 5-FOA and a variety of combinations of serum and uracil sources for 4 days before cell counting was performed. […] This is likely through a competition based mechanism (uridine can reverse 5-fluorouracil toxicity in humans (van Groeningen et al. 1992, Semin. Oncol. 19(2 Suppl 3):148-54)) (FIGS. 3B and C).
# [2] = system: 5-FOA selected UMPS targeted T cells; assay: Uracil auxotrophy growth assay of 5-FOA selected T cells (cell counts at day 8); assay type: cell-based, human
# Procedure: as §1, §2
# To assay whether or not the cells selected for by 5-FOA treatment are uracil auxotrophs, mock or UMPS targeted T cells were exposed to 5-FOA as in Example 4. Following 4 days of 5-FOA selection, the population of cells was split into a uracil containing media (either UMP, uridine or both) and a uracil deficient media. A growth assay was subsequently performed by cell counting after following 4 days incubation in test media (day 8) (FIG. 4A).
smiles,measurement,setting,value
O=c1ccn([C@@H]2O[C@H](COP(=O)(O)O)[C@@H](O)[C@H]2O)c(=O)[nH]1 [UMP],growth of UMPS edited cells,[1],rescue the growth of UMPS edited cells to the same level as mock edited and CCR5 targeted controls
same,survival / viability of cells in 5-FOA,human T cells,improved the survival of both mock treated and UMPS targeted cells in 5-FOA
"O=C(O)c1[nH]c(=O)[nH]c(=O)c1F [5-FOA, 5-fluoroorotic acid]",toxicity of 5-FOA,"human T cells; UMPS targeted vs mock targeted T cells, 4 days of 5-FOA selection, 100 ug/ml to 1 mg/ml",less toxic in UMPS targeted cell lines
same,killing of non-UMPS targeted cells during 5-FOA selection,"[2]; mock targeted T cell cultures, growth negligible after selection",successful killing of non-UMPS targeted cells
O=c1ccn([C@@H]2O[C@H](CO)[C@@H](O)[C@H]2O)c(=O)[nH]1 [uridine],growth of UMPS edited cells,[1],rescue the growth of UMPS edited cells to the same level as mock edited and CCR5 targeted controls
same,survival / viability of cells in 5-FOA,human T cells,improved the survival of both mock treated and UMPS targeted cells in 5-FOA
O=c1cc[nH]c(=O)[nH]1 [uracil],cell growth of 5-FOA selected UMPS targeted population,"[2]; 4 days in uracil containing (UMP, uridine or both) vs uracil deficient media after 4 days of 5-FOA selection",cell growth was stimulated

# — US20190269730A1, “REGULATABLE CELL LINES AND METHODS OF USE THEREOF” (Auxolytic Ltd, priority 2016, published 2019)
